“And” between values parts separate entries of the source, which are not always exact repeats. Identical values can stand only once.
Key:
[1] = incubation concentration of 100 mM; cited from earlier work
[2] = Octanol-water partition coefficients; assay type: physicochemical; settings: errors show SEM; Gd in each layer by ICP-MS
Procedure: Approximately 1 mg of each compound was dissolved in 1 mL of a 1:1 mixture of water/1-octanol. After shaking the sample tube vigorously for 30 s, the tube was placed on a rotator for gentle mixing over 6 h. The tube was then removed from the rotator and allowed to sit for 12 h to ensure complete separation of the aqueous and organic phases. […] Once separation was complete, 10 μL was removed from each layer to determine the concentration of Gd by ICP-MS. The partition coefficient was calculated from the following equation: log10P=log10(Co/Cw), where log10 P is the logarithm of the partition coefficient, Co is the concentration of Gd in the 1-octanol layer, and Cw is the concentration of Gd in the water layer.

[3] = tested on: HeLa cells; assay: Cellular delivery studies with and without GO co-incubation, HeLa; assay type: cell-based; settings: 188 μM Gd(III), 24 h, replicate values
Procedure: ICP-MS Samples were prepared in 15-mL conical tubes by adding ACS reagent grade nitric acid (70%), followed by incubation at 70° C. overnight to allow for complete sample digestion. The effectiveness of this digestion protocol was previously validated for GO. After incubation, a multi-element internal standard (containing Bi, Ho, In, Li, Sc, Tb, and Y, Inorganic Ventures, Christiansburg, Va.) and milli-Q water (18.2 MΩ·cm) were added to produce a final sample of 3% (v/v) nitric acid and 5 ng/mL internal standard.
ICP-MS was performed on a computer-controlled (Plasmalab software) Thermo X series II ICP-MS (Thermo Fisher Scientific, Waltham, Mass., USA) operating in standard mode equipped with an ESI SC-2 autosampler (Omaha, Nebr., USA). Each sample was acquired using 1 survey run (10 sweeps) and 3 main (peak jumping) runs (100 sweeps). The isotopes selected for analysis were Gd with In and Ho isotopes selected as internal standards for data interpolation. Instrument performance is optimized daily through an autotune followed by verification via a performance report (passing manufacturer specifications). Instrument calibration was accomplished by preparing individual-element Gd standards (Inorganic Ventures, Christiansburg, Va., USA) using concentrations of 0.78125, 1.5625, 3.125, 6.25, 12.50, 25.00, 50.00, 100.0, and 200.0 ng/mL containing 3.0% nitric acid (v/v) and 5.0 ng/mL of multi-element internal standard.
Dulbecco's modified phosphate buffered saline (DPBS), media, and dissociation reagents were purchased from Life Technologies (Carlsbad, Calif.). CorningBrand® cell culture consumables (flasks, plates, etc.) and sera were purchased from VWR Scientific (Radnor, Pa.). HeLa cells (ATCC® CCL-2™) and KB cells (ATCC® CCL-17™) were purchased from the American Type Culture Collection (ATCC, Manassas, Va.) and cultured in phenol red-free minimum essential media (MEM) supplemented with 10% fetal bovine serum (FBS). Prior to all experiments, cells were plated and allowed to incubate for 24 hours before dosing. Cells were harvested with 0.25% TrypLE for 5 minutes at 37° C. in a 5.0% CO2 incubator. For sterilization, all Gd(III)-labeled molecules were filtered with 0.2 μm sterile filters prior to concentration determination and storage at 4° C. GO was used as prepared without further sterilization. […] Cells were grown in a humidified incubator operating at 37° C. and 5.0% CO2.
Cell counting was conducted using a Guava EasyCyte Mini Personal Cell Analyzer (EMD Millipore, Billerica, Mass.). After cell harvesting, an aliquot (50 μL) of the cell suspensions was mixed with Guava ViaCount reagent (150 μL) and allowed to stain at room temperature for at least 5 minutes. The dilution factor of 4 was determined based upon optimum machine performance (20-150 cells/μL). After vortexing for 10 sec, stained cells were counted using a Guava EasyCyte Mini Personal Cell Analyzer (PCA) using the ViaCount software module. For each sample, 1000 events were acquired. Gating of live/dead and cell/debris classifications were performed manually by the operator.
Cellular delivery studies were performed with HeLa and KB cells. HeLa and KB were plated at a cell density of approximately 25,000 and 50,000 cells per well, respectively, in a 24-well plate as counted by a hemocytometer. Stock solutions of 1-14 (1 mM), 150 nm GO (100 μg/mL), and 1500 nm GO (100 μg/mL) were prepared using sterile Milli-Q water. Prior to dosing, 80 μL ([…]) of each GO (150 nm and 1500 nm) and 80 μL (80 nmol) of each Gd(III)-labeled molecule (1-14) were mixed and allowed to adsorb for at least 15 minutes. 150 μL Gd(III)-GO solutions were added to 250 μL media to give a final concentration of 188 μM Gd and 18.8 μg/mL GO. Cells were incubated with the mixture of Gd(III)-labeled molecules and GO for […]. To harvest, cells were rinsed in-plate three times with 500 μL PBS and trypsinized using 100 μL 0.25% TrypLE. […]

Compound	Highest cellular labeling reported to date [1] [fmol Gd/cell]	Water-Octanol LogP [2]	Gd content (fmol/cell) ([3]; +150 nm GO co-incubation, 18.8 μg/mL GO)	Gd content (fmol/cell) ([3]; +1500 nm GO co-incubation, 18.8 μg/mL GO)	Gd content (fmol/cell) ([3]; molecule alone, without GO, 24-well plate)
CC(O)CN1CCN(CC(=O)[O-])CCN(CC(=O)[O-])CCN(CC(=O)[O-])CC1.[Gd+3] (centres unmarked) [Molecule 13, [Gd(HP-DO3A)(H2O)]]	31				
O=C([O-])CN(CCN(CC(=O)[O-])CC(=O)[O-])CCN(CC(=O)[O-])CC(=O)[O-].[Gd+3] [Molecule 11]		−3.80 ± 0.29	2.36 fmol/cell and 2.49 fmol/cell and 4.37 fmol/cell and 4.24 fmol/cell and 5.87 fmol/cell and 2.95 fmol/cell and 2.73 fmol/cell and 2.85 fmol/cell	5.16 fmol/cell and 5.75 fmol/cell and 4.01 fmol/cell and 3.75 fmol/cell and 3.78 fmol/cell and 3.36 fmol/cell	0.34 fmol/cell and 0.30 fmol/cell and 0.54 fmol/cell and 0.82 fmol/cell and 0.51 fmol/cell and 0.72 fmol/cell and 0.61 fmol/cell (2×)
